System: patients with advanced solid tumors
Assay: Adverse events
[1] = escalation 35 mg + G-CSF (n = 3)
[2] = escalation 40 mg + G-CSF (n = 11)
[3] = escalation 50 mg + G-CSF (n = 4)
[4] = escalation 1, 2, 4, 8 mg (n = 4)
[5] = expansion 40 mg + G-CSF, CRPC (n = 12)
[6] = expansion 40 mg + G-CSF, OC (n = 29)
[7] = expansion 40 mg + G-CSF, TNBC (n = 14)

## Cc1csc(-c2nnc(Nc3ccc(Oc4ncccc4-c4ccnc(N)n4)cc3)c3ccccc23)c1 [AMG 900]
[1]
  All treatment-related AEs: 3 (100) n (%)
  Fatal AEs: 0 n (%)
  Grade ≥ 3 AEs: 2 (67) n (%)
  Grade ≥ 3 treatment-related AEs: 2 (67) n (%)
  Grade ≥ 3 treatment-related AEs: Anemia: 0 n (%)
  Grade ≥ 3 treatment-related AEs: Diarrhea: 0 n (%)
  Grade ≥ 3 treatment-related AEs: Fatigue: 0 n (%)
  Grade ≥ 3 treatment-related AEs: Febrile neutropenia: 0 n (%)
  Grade ≥ 3 treatment-related AEs: Hemoglobin decreased: 0 n (%)
  Grade ≥ 3 treatment-related AEs: Leukopenia: 1 (33) n (%)
  Grade ≥ 3 treatment-related AEs: Lymphopenia: 0 n (%)
  Grade ≥ 3 treatment-related AEs: Nausea: 0 n (%)
  Grade ≥ 3 treatment-related AEs: Neutropenia: 1 (33) n (%)
  Grade ≥ 3 treatment-related AEs: Thrombocytopenia: 0 n (%)
  Grade ≥ 3 treatment-related AEs: Vomiting: 1 (33) n (%)
  Grade ≥ 3 treatment-related AEs: White blood cell count decreased: 0 n (%)
  Grade ≥ 4 AEs: 1 (33) n (%)
  Serious AEs: 1 (33) n (%)
[2]
  AEs leading to discontinuation of AMG 900: 2 (18) n (%)
  All treatment-emergent AEs: 11 (100) n (%)
  All treatment-related AEs: 10 (91) n (%)
  Fatal AEs: 0 n (%)
  Grade ≥ 3 AEs: 8 (73) n (%)
  Grade ≥ 3 treatment-related AEs: 6 (55) n (%)
  Grade ≥ 3 treatment-related AEs: Anemia: 0 n (%)
  Grade ≥ 3 treatment-related AEs: Diarrhea: 2 (18) n (%)
  Grade ≥ 3 treatment-related AEs: Fatigue: 0 n (%)
  Grade ≥ 3 treatment-related AEs: Febrile neutropenia: 2 (18) n (%)
  Grade ≥ 3 treatment-related AEs: Hemoglobin decreased: 0 n (%)
  Grade ≥ 3 treatment-related AEs: Leukopenia: 1 (9) n (%)
  Grade ≥ 3 treatment-related AEs: Lymphopenia: 1 (9) n (%)
  Grade ≥ 3 treatment-related AEs: Nausea: 0 n (%)
  Grade ≥ 3 treatment-related AEs: Neutropenia: 5 (46) n (%)
  Grade ≥ 3 treatment-related AEs: Thrombocytopenia: 1 (9) n (%)
  Grade ≥ 3 treatment-related AEs: Vomiting: 0 n (%)
  Grade ≥ 3 treatment-related AEs: White blood cell count decreased: 0 n (%)
  Grade ≥ 4 AEs: 4 (36) n (%)
  Serious AEs: 3 (27) n (%)
[3]
  AEs leading to discontinuation of AMG 900: 2 (50) n (%)
  All treatment-emergent AEs: 4 (100) n (%)
  All treatment-related AEs: 4 (100) n (%)
  Fatal AEs: 1 (25) n (%)
  Grade ≥ 3 AEs: 3 (75) n (%)
  Grade ≥ 3 treatment-related AEs: 3 (75) n (%)
  Grade ≥ 3 treatment-related AEs: Anemia: 1 (25) n (%)
  Grade ≥ 3 treatment-related AEs: Diarrhea: 0 n (%)
  Grade ≥ 3 treatment-related AEs: Fatigue: 2 (50) n (%)
  Grade ≥ 3 treatment-related AEs: Febrile neutropenia: 1 (25) n (%)
  Grade ≥ 3 treatment-related AEs: Hemoglobin decreased: 0 n (%)
  Grade ≥ 3 treatment-related AEs: Leukopenia: 1 (25) n (%)
  Grade ≥ 3 treatment-related AEs: Lymphopenia: 0 n (%)
  Grade ≥ 3 treatment-related AEs: Nausea: 0 n (%)
  Grade ≥ 3 treatment-related AEs: Neutropenia: 1 (25) n (%)
  Grade ≥ 3 treatment-related AEs: Thrombocytopenia: 1 (25) n (%)
  Grade ≥ 3 treatment-related AEs: Vomiting: 0 n (%)
  Grade ≥ 3 treatment-related AEs: White blood cell count decreased: 0 n (%)
  Grade ≥ 4 AEs: 2 (50) n (%)
  Serious AEs: 2 (50) n (%)
[4]
  AEs leading to discontinuation of AMG 900: 0 n (%)
  All treatment-emergent AEs: 4 (100) n (%)
  All treatment-related AEs: 3 (75) n (%)
  Fatal AEs: 0 n (%)
  Grade ≥ 3 AEs: 1 (25) n (%)
  Grade ≥ 3 treatment-related AEs: 1 (25) n (%)
  Grade ≥ 3 treatment-related AEs: Anemia: 1 (25) n (%)
  Grade ≥ 3 treatment-related AEs: Diarrhea: 0 n (%)
  Grade ≥ 3 treatment-related AEs: Fatigue: 0 n (%)
  Grade ≥ 3 treatment-related AEs: Febrile neutropenia: 0 n (%)
  Grade ≥ 3 treatment-related AEs: Hemoglobin decreased: 0 n (%)
  Grade ≥ 3 treatment-related AEs: Leukopenia: 0 n (%)
  Grade ≥ 3 treatment-related AEs: Lymphopenia: 0 n (%)
  Grade ≥ 3 treatment-related AEs: Nausea: 0 n (%)
  Grade ≥ 3 treatment-related AEs: Neutropenia: 0 n (%)
  Grade ≥ 3 treatment-related AEs: Thrombocytopenia: 0 n (%)
  Grade ≥ 3 treatment-related AEs: Vomiting: 0 n (%)
  Grade ≥ 3 treatment-related AEs: White blood cell count decreased: 0 n (%)
  Grade ≥ 4 AEs: 0 n (%)
  Serious AEs: 0 n (%)
[5]
  AEs leading to discontinuation of AMG 900: 3 (25) n (%)
  All treatment-emergent AEs: 12 (100) n (%)
  All treatment-related AEs: 12 (100) n (%)
  Fatal AEs: 0 n (%)
  Grade ≥ 3 AEs: 9 (75) n (%)
  Grade ≥ 3 treatment-related AEs: 6 (50) n (%)
  Grade ≥ 3 treatment-related AEs: Anemia: 2 (17) n (%)
  Grade ≥ 3 treatment-related AEs: Diarrhea: 0 n (%)
  Grade ≥ 3 treatment-related AEs: Fatigue: 2 (17) n (%)
  Grade ≥ 3 treatment-related AEs: Febrile neutropenia: 0 n (%)
  Grade ≥ 3 treatment-related AEs: Hemoglobin decreased: 1 (8) n (%)
  Grade ≥ 3 treatment-related AEs: Leukopenia: 0 n (%)
  Grade ≥ 3 treatment-related AEs: Lymphopenia: 1 (8) n (%)
  Grade ≥ 3 treatment-related AEs: Nausea: 2 (17) n (%)
  Grade ≥ 3 treatment-related AEs: Neutropenia: 3 (25) n (%)
  Grade ≥ 3 treatment-related AEs: Thrombocytopenia: 1 (8) n (%)
  Grade ≥ 3 treatment-related AEs: Vomiting: 0 n (%)
  Grade ≥ 3 treatment-related AEs: White blood cell count decreased: 0 n (%)
  Grade ≥ 4 AEs: 2 (17) n (%)
  Serious AEs: 4 (33) n (%)
[6]
  AEs leading to discontinuation of AMG 900: 5 (17) n (%)
  All treatment-emergent AEs: 29 (100) n (%)
  All treatment-related AEs: 28 (97) n (%)
  Fatal AEs: 0 n (%)
  Grade ≥ 3 AEs: 25 (86) n (%)
  Grade ≥ 3 treatment-related AEs: 22 (76) n (%)
  Grade ≥ 3 treatment-related AEs: Anemia: 12 (41) n (%)
  Grade ≥ 3 treatment-related AEs: Diarrhea: 1 (3) n (%)
  Grade ≥ 3 treatment-related AEs: Fatigue: 1 (3) n (%)
  Grade ≥ 3 treatment-related AEs: Febrile neutropenia: 6 (21) n (%)
  Grade ≥ 3 treatment-related AEs: Hemoglobin decreased: 2 (7) n (%)
  Grade ≥ 3 treatment-related AEs: Leukopenia: 3 (10) n (%)
  Grade ≥ 3 treatment-related AEs: Lymphopenia: 1 (3) n (%)
  Grade ≥ 3 treatment-related AEs: Nausea: 0 n (%)
  Grade ≥ 3 treatment-related AEs: Neutropenia: 17 (59) n (%)
  Grade ≥ 3 treatment-related AEs: Thrombocytopenia: 6 (21) n (%)
  Grade ≥ 3 treatment-related AEs: Vomiting: 1 (3) n (%)
  Grade ≥ 3 treatment-related AEs: White blood cell count decreased: 2 (7) n (%)
  Grade ≥ 4 AEs: 12 (41) n (%)
  Serious AEs: 14 (48) n (%)
[7]
  AEs leading to discontinuation of AMG 900: 5 (36) n (%)
  All treatment-emergent AEs: 14 (100) n (%)
  All treatment-related AEs: 13 (93) n (%)
  Fatal AEs: 3 (21) n (%)
  Grade ≥ 3 AEs: 11 (79) n (%)
  Grade ≥ 3 treatment-related AEs: 6 (43) n (%)
  Grade ≥ 3 treatment-related AEs: Anemia: 4 (29) n (%)
  Grade ≥ 3 treatment-related AEs: Diarrhea: 1 (7) n (%)
  Grade ≥ 3 treatment-related AEs: Fatigue: 0 n (%)
  Grade ≥ 3 treatment-related AEs: Febrile neutropenia: 1 (7) n (%)
  Grade ≥ 3 treatment-related AEs: Hemoglobin decreased: 0 n (%)
  Grade ≥ 3 treatment-related AEs: Leukopenia: 0 n (%)
  Grade ≥ 3 treatment-related AEs: Lymphopenia: 0 n (%)
  Grade ≥ 3 treatment-related AEs: Nausea: 1 (7) n (%)
  Grade ≥ 3 treatment-related AEs: Neutropenia: 4 (29) n (%)
  Grade ≥ 3 treatment-related AEs: Thrombocytopenia: 1 (7) n (%)
  Grade ≥ 3 treatment-related AEs: Vomiting: 0 n (%)
  Grade ≥ 3 treatment-related AEs: White blood cell count decreased: 0 n (%)
  Grade ≥ 4 AEs: 5 (36) n (%)
  Serious AEs: 7 (50) n (%)

Source: paper PMC6639057 (Investigational new drugs, 2018)
